The text below walks through data of US20240174650A1, “8-(PICOLINAMIDE) SUBSTITUTED COUMARIN COMPOUND, AND PREPARATION METHOD THEREFOR AND USE THEREOF” (LONGIVITRON (SUZHOU) BIOTECHNOLOGY CO., LTD, priority 2021, published 2024).

Usually IC50 stands for the midpoint of a concentration-inhibition curve.

The target of series [1] is SIRT2 recombinant protein (Homo sapiens (Human), UniProt Q8IXJ6). The series can be described thus: In vitro activity screening of SIRT2 inhibitors (fluorogenic Ac-Gln-Pro-Lys-[Lys-(Ac)]-AMC peptide deacetylation assay). The format is biochemical. The note with it: recombinant SIRT2 1.0 μg, 500 μM NAD+, 50 μM substrate peptide, 37° C. 2 hours. The source says:
In vitro activity screening of SIRT2 inhibitors:
The full-length expression sequence ORF of the human SIRT2 gene is 1170 bp (Accession No.: NM_012237), and the molecular mass of the expressed SIRT2 protein is 43 KDa. The SIRT2 recombinant protein is expressed and purified according to the following steps: the SIRT2 gene was cloned into the expression vector pET-15b (primers were shown as follows: forward: 5 ? -[…]-3 ? (SEQ ID NO. 1); backward: 5 ? -[…]-3 ? (SEQ ID NO. 2)), and the expressed SIRT2 protein contained His6-tag at the N-terminus for purification. The plasmid was transformed into E. coli […], and expressed for 6 h at 18° C. with 1 mM IPTG induction. The induced E. coli cells were collected by centrifugation and frozen at −20° C. Bacterial pellet was re-suspended in 15 mL of cell lysis buffer (50 mM Tris-HCl pH 8.0, 300 mM NaCl), and the bacterial sample was disrupted by sonication for 10 min, and then centrifuged (12000×g, 20 min) at 4° C. to remove the precipitates.
The supernatant was purified by Ni^2+ NTA-agarose matrix column (Qiagen). In the purification process, the unbound proteins were first washed away with the loading buffer (50 mM Tris-HCl pH 8.0, 300 mM NaCl), subsequently, the non-specifically bound proteins were washed away by gradually increasing the concentration of imidazole (0-200 mM), and finally the purified recombinant SIRT2 protein was obtained. Imidazole was removed using a PD-10 column and the concentration of purified SIRT2 protein was determined by the Bradford method. The recombinant SIRT2 protein was stored at −20° C. in a preservation buffer (50 mM Tris-HCl, pH 8.0, 265 mM NaCl, 0.2 mM DTT, and 10% glycerol).
The SIRT2 enzyme activity assay is established based on the published studies. Firstly, peptide segment Ac-Gln-Pro-Lys-[Lys-(Ac)]-AMC, the substrate of SIRT2, was synthesized to serve as a substrate in the enzyme activity assay. The attached fluorescent label was AMC (7-Amino-4-methylcoumarin). […] The reaction was carried out at 37° C. for 2 hours. […] Afterwards, 60 μL of sample treating solution (50 mM Tris-HCl, pH 8.0, 100 mM NaCl, Trypsin and 4 mM nicotinamide) was added to the reaction solution and mixed, and placed at 37° C. for 20 min. Absorption intensity was measured by the enzyme-labeled instrument configured as an excitation light of 355 nm and an absorption light of 460 nm.

In series [2] the test system is neuroblastoma cell SH-SY5Y. In words: Cytotoxicity assay for neuroblastoma cell SH-SY5Y (AlamarBlue). The format is cell-based. The note with it: 48 hours incubation. Here is the method: (§1) Cytotoxicity assay of compounds for neuroblastoma cell SH-SY5Y:
(§2) This testing example investigates the cytotoxicity of compounds against neuroblastoma cell SH-SY5Y, in order to determine the dose for the Parkinson ? s cell model protection assay in the next step. For the cytotoxicity assay, the specific test steps are as follows: the cultured neuroblastoma cell SH-SY5Y was grown in a 96-well cell culture plate with approximately 6000 cells per well. After overnight incubation, the culture medium was exchanged for a new one, and each well was added with different concentrations of Compounds 1-18 ([…], 10, 20, 50, 100, 200 μM), and different control samples were arranged. The cells were continued to be incubated at 37° C. for 48 hours. Each well was added with 10 μL of the dye AlamarBlue® (Invitrogen), and the cells were continued to be incubated at 37° C. for approximately 2 hours and then a color change of the staining solution could be observed; the change of absorption values was obtained on the enzyme-labeled instrument (Ex: 530 nm; Em: 590 nm). In the assay, there were 2 parallel tests for each compound with each concentration. The results were processed with software GraphPad Prism to calculate the cytotoxicity CC50 of each compound. The results are shown in Table 2 (in which Taxol is the positive control group).
A general note: Resazurin is reduced to fluorescent resorufin, in cell work by metabolically active cells.

For series [3], the system named is SH-SY5Y cells damaged by neurotoxicant MPP+. The series can be described thus: Protective activity on Parkinson's disease cell model (MPP+ treated SH-SY5Y, cell viability). The series is classed as cell-based. The settings on record: compound 10 μM, MPP+ 5 mM, 48 h; FIG. 1. Here is the method:
Screening for compounds with protective activity on Parkinson ? s disease cell model:
For the screening test for protective effects on the Parkinson ? s disease cell model, the commonly recognized neurotoxicant MPP^+ (5 mM) is used on the neuroblastoma cell SH-SY5Y to construct the Parkinson ? s disease cell model. This neurotoxicant acts on the SH-SY5Y cell, induces abnormal accumulation of α-synuclein in the cells and causes Parkinson ? s disease-like neurotoxicity. The specific test method is as follows: approximately 20000 SH-SY5Y cells were grown in a 96-well cell plate and cultured overnight. […] The cell viability of the Parkinson ? s disease cell model was determined to assess the protective effects of the compounds on the Parkinson ? s cell model. The test data were analyzed by using GraphPad Prism.

A short description of series [4]: Cytotoxicity assay for neuroblastoma cell SH-SY5Y (AlamarBlue). The series is classed as cell-based. The settings on record: human, SH-SY5Y neuroblastoma cells, 48 hours incubation. How it is done: as §1, §2

Sequence of SIRT2 recombinant protein (Q8IXJ6 whole entry): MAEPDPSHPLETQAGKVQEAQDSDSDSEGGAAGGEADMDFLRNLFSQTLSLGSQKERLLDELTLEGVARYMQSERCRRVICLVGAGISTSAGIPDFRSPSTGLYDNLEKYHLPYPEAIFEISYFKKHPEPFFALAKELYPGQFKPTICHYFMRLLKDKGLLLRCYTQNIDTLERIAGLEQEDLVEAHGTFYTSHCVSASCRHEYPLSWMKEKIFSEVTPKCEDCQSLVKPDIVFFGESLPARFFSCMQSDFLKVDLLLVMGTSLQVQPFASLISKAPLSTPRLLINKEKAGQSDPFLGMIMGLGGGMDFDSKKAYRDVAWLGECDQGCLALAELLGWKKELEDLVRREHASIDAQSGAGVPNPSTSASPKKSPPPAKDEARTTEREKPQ

For `O=C(Nc1ccnc(S(=O)(=O)Nc2ccc(Cl)cc2)c1)c1cccc2ccc(=O)oc12` [Compound 1, N-(2-(N-(4-chlorophenyl)aminosulfonyl)-pyridin-4-yl)-2-oxo-2H-chromene-8-amide], the IC50 in series [1] was 86 nM. This molecule also showed a CC50 in series [2] above 20 μmol[…]L^−1. The “protective effect against SH-SY5Y cell damage by MPP+ (cell viability)” value (“protective effect” below) in series [3] is “more obvious protective effects”.

For the molecule `O=C(Nc1ccnc(S(=O)(=O)Nc2cccc(Cl)c2)c1)c1cccc2ccc(=O)oc12` [Compound 2, N-(2-(N-(3-chlorophenyl)aminosulfonyl)-pyridin-4-yl)-2-oxo-2H-chromene-8-amide], the IC50 in series [1] came to 359 nM. This molecule also yielded a CC50 in series [2] above 20 μmol[…]L^−1.

`O=C(Nc1ccnc(S(=O)(=O)Nc2ccccc2Cl)c1)c1cccc2ccc(=O)oc12` [Compound 3, N-(2-(N-(2-chlorophenyl)aminosulfonyl)-pyridin-4-yl)-2-oxo-2H-chromene-8-amide]: the IC50 in series [1] came out at 1230 nM. In series [2], this molecule yielded a CC50 above 20 μmol[…]L^−1.

Consider `Cc1ccc(NS(=O)(=O)c2cc(NC(=O)c3cccc4ccc(=O)oc34)ccn2)cc1` [Compound 4, N-(2-(N-(4-methylphenyl)aminosulfonyl)-pyridin-4-yl)-2-oxo-2H-chromene-8-amide], for which, in series [1], the IC50 came to 356 nM. Further, in series [2], the CC50 was above 20 μmol[…]L^−1.

For the molecule `O=C(Nc1ccnc(S(=O)(=O)Nc2cccc([N+](=O)[O-])c2)c1)c1cccc2ccc(=O)oc12` [Compound 5, N-(2-(N-(3-nitrophenyl)aminosulfonyl)-pyridin-4-yl)-2-oxo-2H-chromene-8-amide], in series [1], the IC50 turned out to be 180 nM. In series [2], this molecule displayed a CC50 above 20 μmol[…]L^−1.

`N#Cc1ccccc1NS(=O)(=O)c1cc(NC(=O)c2cccc3ccc(=O)oc23)ccn1` [Compound 6, N-(2-(N-(2-cyanophenyl)aminosulfonyl)-pyridin-4-yl)-2-oxo-2H-chromene-8-amide]: the IC50 in series [1] was 1700 nM. The same molecule registered a CC50 in series [2] above 20 μmol[…]L^−1.

Consider `O=C(Nc1ccnc(S(=O)(=O)Nc2ccc(F)cc2)c1)c1cccc2ccc(=O)oc12` [Compound 7, N-(2-(N-(4-fluorophenyl)aminosulfonyl)-pyridin-4-yl)-2-oxo-2H-chromene-8-amide], for which, in series [1], the IC50 came out at 120 nM. Further, the CC50 in series [2] is given as above 20 μmol[…]L^−1.

In the case of `CS(=O)(=O)c1ccc(NS(=O)(=O)c2cc(NC(=O)c3cccc4ccc(=O)oc34)ccn2)cc1` [Compound 8, N-(2-(N-(4-methylsulfonylphenyl)aminosulfonyl)-pyridin-4-yl)-2-oxo-2H-chromene-8-amide], the IC50 in series [1] worked out at 896 nM. The same molecule registered a CC50 in series [2] above 20 μmol[…]L^−1.

For `O=C(Nc1ccnc(S(=O)(=O)Nc2ccc(C(F)(F)F)cc2)c1)c1cccc2ccc(=O)oc12` [Compound 9, N-(2-(N-(4-trifluoromethylphenyl)aminosulfonyl)-pyridin-4-yl)-2-oxo-2H-chromene-8-amide], the IC50 in series [1] was found to be 90 nM. For the same molecule, the CC50 in series [2] is reported as above 20 μmol[…]L^−1.

For the molecule `O=C(Nc1ccnc(S(=O)(=O)Nc2ccc(-c3ccccc3)cc2)c1)c1cccc2ccc(=O)oc12` [Compound 10, N-(2-(N-(4-phenylphenyl)aminosulfonyl)-pyridin-4-yl)-2-oxo-2H-chromene-8-amide], the IC50 in series [1] turned out to be 652 nM. This molecule yielded a CC50 in series [2] above 20 μmol[…]L^−1.

On to `O=C(Nc1ccnc(S(=O)(=O)Nc2ccc(O)cc2)c1)c1cccc2ccc(=O)oc12` [Compound 11, N-(2-(N-(4-hydroxyphenyl)aminosulfonyl)-pyridin-4-yl)-2-oxo-2H-chromene-8-amide], for which, in series [1], the IC50 is 896 nM. In addition, the CC50 in series [2] is given as above 20 μmol[…]L^−1.

Consider `COc1ccc(NS(=O)(=O)c2cc(NC(=O)c3cccc4ccc(=O)oc34)ccn2)cc1` [Compound 12, N-(2-(N-(4-methoxylphenyl)aminosulfonyl)-pyridin-4-yl)-2-oxo-2H-chromene-8-amide], for which, in series [1], the IC50 was 2360 nM. In series [2], this molecule had a CC50 above 20 μmol[…]L^−1.

Regarding `O=C(Nc1ccnc(S(=O)(=O)Nc2ccc(F)c(F)c2)c1)c1cccc2ccc(=O)oc12` [Compound 13, N-(2-(N-(3,4-difluorophenyl)aminosulfonyl)-pyridin-4-yl)-2-oxo-2H-chromene-8-amide], the IC50 in series [1] came to 80 nM. The same molecule gave a CC50 in series [2] above 20 μmol[…]L^−1. Further, the “protective effect” value in series [3] was “more obvious protective effects”.

Turning to `O=C(Nc1ccnc(S(=O)(=O)Nc2ccc(Cl)c(Br)c2)c1)c1cccc2ccc(=O)oc12` [Compound 14, N-(2-(N-(3-bromo-4-chlorophenyl)aminosulfonyl)-pyridin-4-yl)-2-oxo-2H-chromene-8-amide], the IC50 in series [1] worked out at 195 nM. Moreover, the CC50 in series [2] is reported as above 20 μmol[…]L^−1. In addition, the “protective effect” value in series [3] was “more obvious protective effects”.

Turning to `O=C(Nc1ccnc(S(=O)(=O)Nc2cccc3ccc(Br)cc23)c1)c1cccc2ccc(=O)oc12` [Compound 15, N-(2-(N-(7-bromonaphth-1-yl)aminosulfonyl)-pyridin-4-yl)-2-oxo-2H-chromene-8-amide], in series [1], the IC50 is 154 nM. For the same molecule, the CC50 in series [2] is above 20 μmol[…]L^−1. For the same molecule, the “protective effect” value in series [3] is recorded as “more obvious protective effects”.

Take `O=C(Nc1ccnc(S(=O)(=O)Nc2cc(Cl)cc3ccccc23)c1)c1cccc2ccc(=O)oc12` [Compound 16, N-(2-(N-(3-chloronaphth-1-yl)aminosulfonyl)-pyridin-4-yl)-2-oxo-2H-chromene-8-amide]: in series [1], the IC50 stood at 86 nM. Besides, in series [2], the CC50 is above 20 μmol[…]L^−1.

Regarding `O=C(Nc1ccnc(S(=O)(=O)Nc2cccc3ncccc23)c1)c1cccc2ccc(=O)oc12` [Compound 17, N-(2-(N-(quinoline-5-yl)aminosulfonyl)-pyridin-4-yl)-2-oxo-2H-chromene-8-amide], the IC50 in series [1] is 871 nM. Also, the CC50 in series [2] is reported as above 20 μmol[…]L^−1.

`CC(=O)O[C@H]1C(=O)[C@@]2(C)[C@H]([C@H](OC(=O)c3ccccc3)[C@]3(O)C[C@H](OC(=O)[C@H](O)[C@@H](NC(=O)c4ccccc4)c4ccccc4)C(C)=C1C3(C)C)[C@]1(OC(C)=O)CO[C@@H]1C[C@@H]2O` [Taxol, reference compound] came in with a CC50 at 48 h in series [4] of 21 nM.
